Laboratory results: patent publication US6924302B2, “Substituted triazole diamine derivatives as kinase inhibitors” (Ortho McNeil Pharmaceutical, Inc., priority 2000, dated 2005)
Read-outs that look alike come from different tables or passages of the source.

Key:
[1] = test system: SK-OV-3 ovarian adenocarcinoma; assay: Inhibition of Cell Proliferation (14C-thymidine incorporation), SK-OV-3; assay type: cell-based; details: Homo sapiens, SK-OV-3 cell line
Procedure: (§1) The ability of a test compound to inhibit the proliferation of cell growth was determined by measuring incorporation of ^14C-labelled thymidine into newly synthesized DNA within the cells. […] Cells were trypsinized and counted and 3000-8000 cells were added to each well of a 96-well CytoStar tissue culture treated scintillating microplate (Amersham #RPNQ0160) in complete medium in a volume of 100 μl. Cells were incubated for 24 hours in complete medium at 37° C. in an atmosphere containing 5% CO2. Next, 1 μl of test compound in 100% DMSO was added to the wells of the plate. DMSO only was added to control wells. Cells were incubated for 24 more hours in complete medium at 37° C. in an atmosphere containing 5% CO2. […] The plate was incubated for 24 hours at 37° C. plus 5% CO2 in drug plus ^14C-thymidine. The contents of the plate were discarded into a ^14C radioactive waste container by inverting the plate and the plate was washed twice with 200 μl PBS. 200 μl of PBS is added to each well. […] The degree of methyl ^14C-thymidine incorporation was quantified on a Packard Top Count.

MDA-MB-231 = assay: Inhibition of Cell Proliferation (14C-thymidine incorporation), MDA-MB-231; assay type: cell-based; details: Homo sapiens, MDA-MB-231 cell line
Procedure: as §1

[2] = target: T1, HER2 (human epidermal growth factor receptor-2) (Homo sapiens, UniProt P04626); assay: Kinase Selectivity Assay HER2; assay type: biochemical
T1 construct: begins at amino acid 676 followed by the remainder of the HER2 cytoplasmic domain; polyhistidine (N)
Summary of the method: (§2)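 Biotinylated peptide phosphorylation measured as ^33P-γ-ATP incorporation on streptavidin plates after 1 h at 30° C, 1% DMSO final, enzyme in 50 mM Tris-HCl pH 8.0, 0.1% BSA. Compounds in duplicate at 8 concentrations, 100 uM to 10 pM. IC50 from percent inhibition versus log concentration.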

FGF-R2 = FGF-R2 (Homo sapiens, UniProt P21802); assay: Kinase Selectivity Assay FGF-R2; assay type: biochemical; details: Tables 2a-2k
Procedure: Assays to test compound inhibition of other kinases were preformed using methods that measure the amount of phosphorylation of a biotinylated peptide substrate. Biotinylated peptide substrates were selected from the literature as appropriate for the enzyme being evaluated. […] Assay conditions vary slightly for each protein kinase, for example, insulin receptor kinase requires 10 mM MnCl2 for activity and Calmodulin-dependent protein kinase requires calmodulin and 10 mM CaCl2. These assay conditions are known in the art. The reaction mixture was dispensed into the wells of a streptavidin coated Flashplate and 1 μl drug stock in 100% DMSO was added to a 100 μl reaction volume resulting in a final concentration of 1% DMSO on the reaction. Enzyme was diluted in 50 mM Tris-HCl pH=8.0, 0.1% BSA and add to each well. The reaction was incubated for one hour at 30° C. in the presence of compound. After one hour the reaction mix was aspirated from the plate and the plate was washed with PBS containing 100 mM EDTA. The plate was read on a scintillation counter to determine ^33P-γ-ATP incorporated into the immobilized peptide. Test compounds were assayed in duplicate at 8 concentrations [100 uM, 10 uM, 1 uM, 100 nM, 10 nM, 1 nM, 100 pM, 10 pM]. A maximum and minimum signal for the assay was determined on each plate. The IC50 was calculated from the dose response curve of the percent inhibition of the maximum signal in the assay according to the formula [max signal—background/test compound signal—background (100)=% inhibition] by graphing the percent inhibition against the log concentration of test compound. Known inhibitor compounds appropriate for the kinase being assayed were also included on each plate.

[3] = target: T2, CDK2 in complex with cyclin A (Homo sapiens, UniProt P24941); assay: Kinase Selectivity Assay CDK2; assay type: biochemical; details: Table 1
T2 construct: purchased Upstate Biotech
Summary of the method: as §2

[4] = Kinase Selectivity, Tables 2a-2k, read-out: HER2 Kinase IC50

T1 sequence (P04626 676-1255 limits assumed): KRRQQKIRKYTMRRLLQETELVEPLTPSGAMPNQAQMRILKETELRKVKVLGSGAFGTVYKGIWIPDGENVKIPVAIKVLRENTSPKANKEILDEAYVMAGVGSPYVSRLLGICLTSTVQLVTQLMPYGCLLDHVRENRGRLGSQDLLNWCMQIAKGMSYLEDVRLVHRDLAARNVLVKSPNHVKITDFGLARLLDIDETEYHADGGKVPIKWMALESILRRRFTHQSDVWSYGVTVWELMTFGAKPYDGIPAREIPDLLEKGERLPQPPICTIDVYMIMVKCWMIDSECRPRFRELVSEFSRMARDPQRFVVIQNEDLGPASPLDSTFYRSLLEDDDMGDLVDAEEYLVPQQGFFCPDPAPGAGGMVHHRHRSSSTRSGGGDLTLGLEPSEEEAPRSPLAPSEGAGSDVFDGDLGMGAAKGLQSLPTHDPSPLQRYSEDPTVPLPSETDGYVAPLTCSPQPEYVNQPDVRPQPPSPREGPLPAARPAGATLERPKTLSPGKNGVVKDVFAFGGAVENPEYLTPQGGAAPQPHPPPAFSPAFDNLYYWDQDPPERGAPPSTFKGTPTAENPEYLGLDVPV
Chain of FGF-R2 (P21802 22-821, species assumed): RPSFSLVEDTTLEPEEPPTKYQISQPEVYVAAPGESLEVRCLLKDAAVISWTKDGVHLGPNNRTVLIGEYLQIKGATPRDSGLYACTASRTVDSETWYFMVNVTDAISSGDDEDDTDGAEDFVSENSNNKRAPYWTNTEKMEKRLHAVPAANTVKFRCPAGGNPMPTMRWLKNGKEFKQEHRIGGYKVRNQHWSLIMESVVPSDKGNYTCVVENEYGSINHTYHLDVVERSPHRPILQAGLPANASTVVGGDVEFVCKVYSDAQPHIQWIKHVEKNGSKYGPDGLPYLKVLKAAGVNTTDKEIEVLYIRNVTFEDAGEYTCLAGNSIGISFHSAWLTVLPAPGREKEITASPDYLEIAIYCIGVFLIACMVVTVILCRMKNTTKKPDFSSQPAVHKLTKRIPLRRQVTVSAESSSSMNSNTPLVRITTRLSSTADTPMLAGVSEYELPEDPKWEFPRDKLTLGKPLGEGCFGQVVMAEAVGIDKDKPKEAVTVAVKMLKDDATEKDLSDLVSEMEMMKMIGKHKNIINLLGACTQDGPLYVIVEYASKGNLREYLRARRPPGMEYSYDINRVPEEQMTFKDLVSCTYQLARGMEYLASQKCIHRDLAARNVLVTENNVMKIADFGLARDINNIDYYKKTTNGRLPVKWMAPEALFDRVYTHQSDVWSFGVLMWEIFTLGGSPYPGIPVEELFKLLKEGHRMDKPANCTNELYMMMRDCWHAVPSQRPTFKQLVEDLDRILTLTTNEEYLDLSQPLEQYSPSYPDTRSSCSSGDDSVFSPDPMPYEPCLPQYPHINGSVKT

Compound | IC50 [1] | IC50 [2, 4] | IC50 ([2]; Table 1, read-out: HER2 IC50) | IC50 (FGF-R2) | IC50 [3] | also measured
Nc1nc(Nc2ccc(S(N)(=O)=O)cc2)nn1C(=O)c1c(F)cccc1F [Cpd 1, 4-[[5-amino-1-(2,6-difluorobenzoyl)-1H-1,2,4-triazol-3-yl]amino]-benzenesulfonamide] | 750 nM | – | – | – | – | IC50 (MDA-MB-231): 587 nM
Nc1nc(Nc2ccc(S(N)(=O)=O)cc2)nn1C(=O)c1sccc1F [Cpd 16, 4-[[5-amino-1-[(3-fluoro-2-thienyl)carbonyl]-1H-1,2,4-triazol-3-yl]amino]-benzenesulfonamide] | 2110 nM | – | – | – | – | –
Nc1nc(Nc2ccc(S(N)(=O)=O)cc2)nn1C(=O)c1sccc1Cl [Cpd 17, 4-[[5-amino-1-[(3-chloro-2-thienyl)carbonyl]-1H-1,2,4-triazol-3-yl]amino]-benzenesulfonamide] | 3900 nM | – | – | – | – | –
Nc1nc(Nc2ccc(S(N)(=O)=O)cc2)nn1C(=O)c1ccsc1 [Cpd 30, 4-[[5-amino-1-(3-thienylcarbonyl)-1H-1,2,4-triazol-3-yl]amino]-benzenesulfonamide] | 5750 nM | – | – | – | – | –
CCc1ccc(C(=O)n2nc(Nc3ccc(S(N)(=O)=O)cc3)nc2N)s1 [Cpd 32, 4-[[5-amino-1-[(5-ethyl-2-thienyl)carbonyl]-1H-1,2,4-triazol-3-yl]amino]-benzenesulfonamide] | – | 9 nM | – | – | – | IC50 (MDA-MB-231): 131 nM
Cc1nc(C)c(C(=O)n2nc(Nc3ccc(S(N)(=O)=O)cc3)nc2N)s1 [Cpd 34, 4-[[5-amino-1-[(2,4-dimethyl-5-thiazolyl)carbonyl]-1H-1,2,4-triazol-3-yl]amino]-benzenesulfonamide] | – | – | – | – | – | IC50 (MDA-MB-231): 898 nM
Nc1nc(Nc2ccc(S(N)(=O)=O)cc2)nn1C(=O)c1sccc1Br [Cpd 35, 4-[[5-amino-1-[(3-bromo-2-thienyl)carbonyl]-1H-1,2,4-triazol-3-yl]amino]-benzenesulfonamide] | – | – | – | – | – | IC50 (MDA-MB-231): 1140 nM
Nc1nc(Nc2ccc(S(N)(=O)=O)cc2)nn1C(=O)C1CCCC1 [Cpd 38, 4-[[5-amino-1-(cyclopentylcarbonyl)-1H-1,2,4-triazol-3-yl]amino]-benzenesulfonamide] | – | – | – | – | – | IC50 (MDA-MB-231): 6760 nM
Nc1nc(Nc2ccc(S(N)(=O)=O)cc2)nn1C(=O)C1CCCCC1 [Cpd 39, 4-[[5-amino-1-(cyclohexylcarbonyl)-1H-1,2,4-triazol-3-yl]amino]-benzenesulfonamide] | – | – | – | – | – | IC50 (MDA-MB-231): 2910 nM
CC(C)(C)c1ccc(C(=O)n2nc(Nc3ccc(S(N)(=O)=O)cc3)nc2N)s1 [Cpd 51, 4-[[5-amino-1-[[5-(1,1-dimethylethyl)-2-thienyl]carbonyl]-1H-1,2,4-triazol-3-yl]amino]-benzenesulfonamide] | – | 31 nM | 31 nM | – | – | –
Cc1ccccc1C(=O)n1nc(Nc2ccc(S(N)(=O)=O)cc2)nc1N [Cpd 57, 4-[[5-amino-1-(2-methylbenzoyl)-1H-1,2,4-triazol-3-yl]amino]-benzenesulfonamide] | – | 1320 nM | 1320 nM | – | – | –
CC(O)c1ccc(F)c(C(=O)n2nc(Nc3ccc(S(N)(=O)=O)cc3)nc2N)c1F (stereo not shown) [Cpd 58, 4-[[5-amino-1-[2,6-difluoro-3-(1-hydroxyethyl)benzoyl]-1H-1,2,4-triazol-3-yl]amino]-benzenesulfonamide] | – | 654 nM | 650 nM | 96 nM | – | –
Cc1ccc(F)c(C(=O)n2nc(Nc3ccc(S(N)(=O)=O)cc3)nc2N)c1Cl [Cpd 69, 4-[[5-amino-1-(2-chloro-6-fluoro-3-methylbenzoyl)-1H-1,2,4-triazol-3-yl]amino]-benzenesulfonamide] | – | – | – | 365 nM | – | –
Nc1nc(Nc2ccc(S(N)(=O)=O)cc2)nn1C(=O)c1c(F)cccc1Cl [Cpd 70, 4-[[5-amino-1-(2-chloro-6-fluorobenzoyl)-1H-1,2,4-triazol-3-yl]amino]-benzenesulfonamide] | – | 1230 nM | 1230 nM | 273 nM | – | –
CN1CCN(c2ccc(Nc3nc(N)n(C(=O)c4c(F)cccc4F)n3)cc2)CC1 [Cpd 71, 1-(2,6-difluorobenzoyl)-N^3-[4-(4-methyl-1-piperazinyl)phenyl]-1H-1,2,4-triazole-3,5-diamine] | – | 1300 nM | 1300 nM | 441 nM | – | –
CNS(=O)(=O)c1ccc(Nc2nc(N)n(C(=O)c3c(F)cccc3F)n2)cc1 [Cpd 80, 4-[[5-amino-1-(2,6-difluorobenzoyl)-1H-1,2,4-triazol-3-yl]amino]-N-methyl-benzenesulfonamide] | 16300 nM | – | 1120 nM | – | – | –
CNS(=O)(=O)c1ccc(Nc2nc(N)n(C(=O)c3c(F)ccc(C)c3F)n2)cc1 [Cpd 81, 4-[[5-amino-1-(2,6-difluoro-3-methylbenzoyl)-1H-1,2,4-triazol-3-yl]amino]-N-methyl-benzenesulfonamide] | 348 nM | – | – | 268 nM | 1 nM | –
CNS(=O)(=O)c1ccc(Nc2nc(N)n(C(=O)c3sccc3C)n2)cc1 [Cpd 82, 4-[[5-amino-1-[(3-methyl-2-thienyl)carbonyl]-1H-1,2,4-triazol-3-yl]amino]-N-methyl-benzenesulfonamide] | 921 nM | – | – | 89 nM | – | –
CCc1ccc(C(=O)n2nc(Nc3ccc(S(=O)(=O)NC)cc3)nc2N)s1 [Cpd 84, 4-[[5-amino-1-[(5-ethyl-2-thienyl)carbonyl]-1H-1,2,4-triazol-3-yl]amino]-N-methyl-benzenesulfonamide] | 461 nM | – | – | 300 nM | – | –
CCc1ccc(C(=O)n2nc(Nc3ccc(S(=O)(=O)NCCN(C)C)cc3)nc2N)s1 [Cpd 103, 4-[[5-amino-1-[(5-ethyl-2-thienyl)carbonyl]-1H-1,2,4-triazol-3-yl]amino]-N-[2-(dimethylamino)ethyl]-benzenesulfonamide] | – | 228 nM | 228 nM | 170 nM | 1 nM | –
Cc1ccsc1C(=O)n1nc(Nc2ccc(S(=O)(=O)NCCN(C)C)cc2)nc1N [Cpd 104, 4-[[5-amino-1-[(3-methyl-2-thienyl)carbonyl]-1H-1,2,4-triazol-3-yl]amino]-N-[2-(dimethylamino)ethyl]-benzenesulfonamide] | – | – | – | 200 nM | 1 nM | –
Cc1cc(C)c(C(=O)n2nc(Nc3ccc(NS(C)(=O)=O)cc3)nc2N)s1 [Cpd 108, N-[4-[[5-amino-1-[(3,5-dimethyl-2-thienyl)carbonyl]-1H-1,2,4-triazol-3-5 yl]amino]phenyl]-methanesulfonamide] | – | 42 nM | 41.7 nM | 307 nM | 12 nM | –
Cc1ccsc1C(=O)n1nc(Nc2ccc(N3CCNC3=O)cc2)nc1N [Cpd 113, 1-[4-[[5-amino-1-[(3-methyl-2-thienyl)carbonyl]-1H-1,2,4-triazol-3-yl]amino]phenyl]-2-imidazolidinone] | 281 nM | 68 nM | 68 nM | – | – | –
Cc1ccsc1C(=O)n1nc(Nc2ccc(N3CCCS3(=O)=O)cc2)nc1N [Cpd 116, N^3-[4-(1,1-dioxido-2-isothiazolidinyl)phenyl]-1-[(3-methyl-2-thienyl)carbonyl]-1H-1,2,4-triazole-3,5-diamine] | – | 131 nM | 131 nM | – | 1 nM | –
Nc1nc(Nc2ccc(N3CCCS3(=O)=O)cc2)nn1C(=O)c1c(F)cccc1F [Cpd 117] | – | – | – | – | 7 nM | –
Nc1nc(Nc2ccc(S(=O)(=O)Nc3ccccn3)cc2)nn1C(=O)c1c(F)cccc1F [Cpd 118, 4-[[5-amino-1-(2,6-difluorobenzoyl)-1H-1,2,4-triazol-3-yl]amino]-N-(2-pyridinyl)-benzenesulfonamide] | – | > 10000 nM | > 10000 nM | – | 21 nM | –
Cc1cc(C)c(C(=O)n2nc(Nc3ccc(S(=O)(=O)Nc4ccccn4)cc3)nc2N)s1 [Cpd 120] | – | – | – | – | 9 nM | –
Cc1ccc(F)c(C(=O)n2nc(N)nc2Nc2ccc(S(N)(=O)=O)cc2)c1F [Cpd 123, 4-[[3-amino-1-(2,6-difluoro-3-methylbenzoyl)-1H-1,2,4-triazol-5-yl]amino]-benzenesulfonamide] | – | > 100000 nM | ~100000 nM | – | 31 nM | –
